Experimental data: patent US7132553B2, “Product comprising an inhibitor of the transduction of heterotrimeric G protein signals combined with an anti-hypertensive agent for therapeutic use in the treatment of arterial hypertension” (Societe de Conseils de Recherches et d'Applications …, priority 2000, dated 2006)

Columns and labels:
[1] = system: spontaneously hypertensive rats (SHR); assay: Arterial pressure in anaesthetized spontaneously hypertensive rats (carotid catheter); type: in vivo; details: SHR rat, single intravenous injection, verapamil 0.1 or 0.3 mg/kg, captopril 1 mg/kg; for time of return of arterial pressure to initial values after injection: G protein inhibitor 1 mg/kg; for effect on arterial pressure (in words): G protein inhibitor 1 mg/kg (FIG. 1)
Experimental: (§1) 13/14 week old male SHR rats (Charles River France) are anaesthetized using pentobarbital (Sanofi) (60 mg/kg/IP). […] After a stabilization period of 10 minutes, the product or two products simultaneously are administered and their effects are monitored for 20 minutes.
(§2) For administration purposes, 7-(2-amino-1-oxo-3-thiopropyl)-8-(cyclohexylmethyl)-2-phenyl-5,6,7,8-tetrahydro-imidazo[1,2a]pyrazine, verapamil (Sigma, USA) and captopril (Sigma, USA) can be dissolved in an aqueous solution of NaCl at 0.9%.

[2] = system: spontaneously hypertensive rats (SHR); assay: Heart rate in anaesthetized spontaneously hypertensive rats (carotid catheter); type: in vivo; design: Frequency difference (Δ) (reduction in heart rate): unit not given here; details: SHR rat; for Frequency difference (Δ) (reduction in heart rate): single product, intravenous, monitored 20 minutes; for reduction in heart rate, maximum difference (delta): baseline 328 to 371 beats per minute (FIG. 2)
Experimental: as §1, §2

Row | SMILES | time of return of arterial pressure to initial values after injection [1] [min] | effect on arterial pressure (in words) [1] | Frequency difference (Δ) (reduction in heart rate) ([2]; dose 1 mg/kg) | change of heart rate (in words) ([2]; single products, single intravenous injection (FIG. 2)) | reduction in heart rate, maximum difference (delta) ([2]; 1 mg/kg intravenous) | reduction in heart rate, maximum difference (delta) ([2]; 0.1 mg/kg intravenous) | reduction in heart rate, maximum difference (delta) ([2]; 0.3 mg/kg intravenous) | Frequency difference (Δ) (reduction in heart rate) ([2]; dose 0.1 mg/kg) | Frequency difference (Δ) (reduction in heart rate) ([2]; dose 0.3 mg/kg)
1 | C[C@H](CS)C(=O)N1CCC[C@H]1C(=O)O [Captopril, captopril] | 20 | immediate reduction | 1 | does not change the heart rate at all | – | – | – | – | –
2 | NC(CS)C(=O)N1CCn2cc(-c3ccccc3)nc2C1CC1CCCCC1 (centres unmarked) [Compound 2, 7-(2-amino-1-oxo-3-thiopropyl)-8-(cyclohexylmethyl)-2-phenyl-5,6,7,8-tetrahydroimidazo[1,2a]pyrazine] | 20 | immediate reduction | 44 | – | 44 | – | – | – | –
3 | COc1ccc(CCN(C)CCCC(C#N)(c2ccc(OC)c(OC)c2)C(C)C)cc1OC (centres unmarked) [Verapamil, verapamil] | 20 | immediate reduction | – | – | – | 32 | 56 | 28 | 56
